From US20060058243A1, “Methods and compositions for treating diabetes mellitis” (priority 2002, published 2006)
“Also recorded” adds a separate entry of the source.

What was measured:
[1] = test system: 3T3-L1 adipocytes; assay: Glucose transport stimulatory (GTS) activity, 2-deoxy-D-[3H]glucose uptake; format: cell-based; conditions: for GTS activity (in words): 3T3-L1 cell system; for glucose uptake by the cells: 20-40 μM
Experimental: (§1) PGG, either as a mixture or as single isomer (α or β), is added to either adipocytes (A) or preadipocytes (B). GTS activity (A) and AD activity (B) of PGG are measured by ^3H-glucose uptake. GLUT4 is not expressed in preadipocytes, so glucose uptake can be used as an indirect measurement of adipocyte differentiation.
Glucose uptake activity in cells may be analyzed by measuring the uptake of 2-deoxy-D-[^3H] glucose using a standard assay. Confluent 3T3-L1 adipocytes grown in 12-well plates are washed twice with serum-free DMEM and incubated with 1 mL of the same medium at 37° C. for 2 h. The cells are washed 3 times with Krebs-Ringer-Hepes (KRP) buffer and incubated with 0.9 mL KRP buffer at 37° C. for 30 min. […] Glucose uptake is initiated by addition of 0.1 mL KRP buffer and 37 MBq/L 2-deoxy-D-[^3H] glucose and 1 mmol/L glucose as final concentrations. After 10 min, glucose uptake is terminated by washing the cells 3 times with cold PBS. The cells are lysed with 0.7 mL of 1% Triton X-100 at 37° C. for 20 min. The radioactivity retained by the cell lysates is determined by a scintillation counter. The dosage that induces the maximal glucose uptake can be selected among the experimental samples.
3T3-L1 adipocytes were purchased from ATCC, and maintained and passed as preadipocytes in DMEM supplemented with 10% calf serum in a 37° C. incubator with 10% CO2 as required by the cells. The cells were induced to differentiate into adipocytes by addition of MDI induction cocktail as described in Liu, F., Kim, J., Li, Y., Liu, X., Li, J. & Chen, X. (2001) An extract of Lagerstroemia speciosa L. has insulin-like glucose uptake-stimulatory and adipocyte differentiation-inhibitory activities in 3T3-L1 cells. J. Nutrition 131:2242-224, which is specifically incorporated herein by reference. Varying amounts of α-PGG and β-PGG were then added to the medium and the amount of glucose taken up by control and treated cells determined using a standard glucose uptake assay, as described in Liu et al. As shown in FIG. 2A chemically synthesized and plant derived β-PGG have similar glucose transport stimulatory (GTS). The GTS activity of α-PGG is consistently 10-20% higher than that of β-PGG (FIG. 2).
Confluent 3T3-L1 adipocytes grown in 12-well plates were washed twice with serum-free DMEM and incubated with 1 mL of the same medium at 37° C. for 2 h. The cells were washed 3 times with Krebs-Ringer-Hepes (KRP) buffer and incubated with 0.9 mL KRP buffer at 37° C. for 30 min. Compounds listed in the table below were then added at 20-40 μM (final concentration?) and adipocytes were incubated at 37° C. for 15 min. Glucose uptake was initiated by addition of 0.1 mL KRP buffer and 37 MBq/L 2-deoxy-D-[3H] glucose and 1 mmol/L glucose as final concentrations. After 10 min, glucose uptake was terminated by washing the cells 3 times with cold PBS. The cells were lysed with 0.7 mL of 1% Triton X-100 at 37° C. for 20 min. The radioactivity retained by the cell lysates is determined by a scintillation counter.

[2] = test system: gelatin, BSA, ovalbumin; assay: Competitive protein binding assay with 125I BSA tracer; conditions: FIG. 5
Experimental: A fixed quantity of ^125I BSA was incubated with PGG in the presence of variable amount of either cold gelatin, or BSA, or ovalbumin. Bound was separated from free by precipitation and was expressed as the % bound in the absence of competitor.
A competitive binding assay using radiolabeled bovine serum albumin (BSA) as the tracer was used to determine whether PGG can bind proteins selectively. The relative affinities of three standard proteins for PGG differ from one another by at least 10-fold (FIG. 5), and the difference of the binding affinities of PGG to gelatin and ovalbumin is more than 100-fold.

[3] = test system: Normal (healthy) mice; assay: Blood glucose in normal mice at basal glucose level (hypoglycemia test); conditions: given 120 min after 40 mg oral glucose; PGG oral, insulin intraperitoneal
Experimental: Normal (healthy) mice were orally fed with 40 mg of glucose at time zero. […] Thus, PGG reduces blood glucose level when it is higher than normal.

[4] = test system: PPARγ and C/EBPα gene expression in 3T3-L1 preadipocytes; assay: Northern blot analysis of differentiation gene expression; format: cell-based; conditions: FIG. 9
Experimental: FIG. 9. Northern blot analysis of PPARγ and C/EBPα gene expression in 3T3-L1 preadipocytes. Differentially treated preadipocytes were analyzed for their mRNA expression at various times post treatment. Lane 1: No treatment; Lane 2=MDI; Lane 3=30 μM PGG+MDI; Lane 4=30 μM of PGG alone. Times=times post treatment when mRNA was isolated.
At various times the treated cells were harvested, the total RNA was isolated, and expression was analyzed by Northern blots using probes complementary to various genes that are involved in the differentiation process.

[5] = target: T1, insulin receptor IR in 3T3-L1 adipocytes (Mus musculus, UniProt P15208); assay: 125I-insulin binding in the presence of PGG; conditions: FIG. 4
T1 construct: host or cells: 3T3-L1 adipocytes

[6] = test system: Akt in 3T3-L1 adipocytes; assay: Western blot of Akt phosphorylation; format: cell-based; conditions: PGG 15 μM and 30 μM, FIG. 7
Text: Differentially treated adipocytes were lysed, the cell proteins analyzed by SDS-PAGE.

[7] = test system: ob/ob mice; assay: Glucose tolerance test in ob/ob mice; format: in vivo; conditions: ob/ob mice
Experimental: FIG. 11. Effect of PGG on blood glucose levels in db/db and ob/ob mice. Various doses of α-PGG were orally delivered without glucose to db/db mice(A) or with glucose to ob/ob mice (B) mice. At different times post the delivery, glucose was determined in samples from tail blood.
FIG. 12. PGG protects ob/ob mice from hyperglycemia immediately after glucose challenge and hypoglycemia several days after the challenge. At various time points after the glucose challenge, blood glucose levels were measured in tail blood.
To determine if α-PGG is also effective in improving glucose tolerance in diabetic and obese mice, a glucose tolerance test was performed using ob/ob mice. Glucose or glucose plus α-PGG were orally delivered into male ob/ob mice, and blood glucose levels were measured at various times post glucose/PGG administration.
A single high does of glucose in ob/ob mice can be fatal, either because of the very high levels of blood glucose levels […] after the glucose challenge or because of the abnormally low glucose levels 2-3 days after the glucose challenge. […] Although the protection mechanisms are unknown at this time, it is very likely that α-PGG protected the ob/ob mice not only by its GTS activity, but also some other activity such as AD-related activity.

[8] = test system: 3T3-L1 preadipocytes; assay: Adipocyte differentiation (AD) of preadipocytes, MDI induction, Oil Red O staining and glucose uptake; format: cell-based
Experimental: as §1
Ten days after induction, the cells were stained with Oil Red 0 and photographed at magnification X200. Only those cells that contain fat vesicles (triglyceride) can be stained.
After about 10 days MDI induces differentiation, which is clearly visible as the change from fibroblast-like preadipcytes to round-shaped, fat vesicle-containing adipocytes.
3T3-L1 adipocytes were purchased from ATCC, and maintained and passed as preadipocytes in DMEM supplemented with 10% calf serum in a 37° C. incubator with 10% CO2 as required by the cells. To test the effect of PGG on adipogenesis, the preadipocytes were incubated either with a differentiation-induction cocktail comprised of 3-isobutyl-1-methylxanthine, […], a cocktail comprised of 3-isobutyl-1-methylxanthine, dexamethasone (MD) and PGG; or with MDI plus PGG.
In order to study the mechanism by which PGG inhibits 3T3-L1 preadipocyte differentiation, we used gene expression studies. This strategy allows us to determine whether PGG specifically acts on genes that participate in the differentiation process. […] After about 10 days MDI induces differentiation, which is clearly visible as the change from fibroblast-like preadipcytes to round-shaped, fat vesicle-containing adipocytes (FIG. 8 middle).

[9] = test system: 3T3-L1 adipocytes; assay: Glucose transport induced by insulin or PGG in the presence of insulin-signaling pathway inhibitors; format: cell-based; conditions: FIG. 6
Experimental: The glucose transport activity of the treated cells was measured by ^3H glucose taken up by the cells. HNMPA-(AM)3 inhibits IR Tyr kinase activity, Cytochalasin B inhibits GLUT4, Wortmannin inhibits PI-3K, respectively.

[10] = test system: 3T3-L1 preadipocytes; assay: Clonal expansion / cell proliferation assay by LDH activity; format: cell-based; conditions: in the presence of MDI, FIG. 10
Experimental: Preadipocytes were induced to undergo clonal expansion by MDI, or α-PGG, or β-PGG in the presence of MDI. 24 or 48 hrs after induction, the media was removed and the cells were lysed. The […] (LDH) activity of the cell lysates was measured by LDH kit. Cell growth media were also collected and their LDH activity from dead cells was also measured (not shown on this graph). LDH activity is a constant per cell in a given cell type, the LDH activity measured is proportional to the number of cells in the samples.
A cell proliferation assay was used to determine if PGG inhibits adipocyte differentiation by blocking clonal expansion. […] The basis for the difference between the anomers in clonal expansion and differentiation is not known.

T1 sequence (P15208 28-748 limits assumed): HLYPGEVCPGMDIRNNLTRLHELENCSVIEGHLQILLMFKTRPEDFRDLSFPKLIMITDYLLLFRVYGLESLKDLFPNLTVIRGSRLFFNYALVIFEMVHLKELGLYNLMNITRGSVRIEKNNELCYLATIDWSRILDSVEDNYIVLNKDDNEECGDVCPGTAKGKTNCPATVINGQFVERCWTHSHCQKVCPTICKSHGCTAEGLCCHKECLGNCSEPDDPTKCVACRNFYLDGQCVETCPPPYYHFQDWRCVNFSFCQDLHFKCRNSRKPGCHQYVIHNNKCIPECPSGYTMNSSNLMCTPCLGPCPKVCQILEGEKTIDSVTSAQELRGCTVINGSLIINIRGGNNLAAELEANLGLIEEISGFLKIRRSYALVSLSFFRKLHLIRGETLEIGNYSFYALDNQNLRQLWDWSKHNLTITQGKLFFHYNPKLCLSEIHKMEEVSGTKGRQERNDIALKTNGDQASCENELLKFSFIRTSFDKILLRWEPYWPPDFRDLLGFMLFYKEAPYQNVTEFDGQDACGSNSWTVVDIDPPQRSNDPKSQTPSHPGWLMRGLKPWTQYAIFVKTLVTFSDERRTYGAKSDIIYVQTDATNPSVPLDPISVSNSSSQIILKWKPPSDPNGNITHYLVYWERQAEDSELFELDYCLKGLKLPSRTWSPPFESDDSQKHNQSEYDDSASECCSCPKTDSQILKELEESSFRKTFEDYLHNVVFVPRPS
T1 sequence (P15208 753-1372 limits assumed): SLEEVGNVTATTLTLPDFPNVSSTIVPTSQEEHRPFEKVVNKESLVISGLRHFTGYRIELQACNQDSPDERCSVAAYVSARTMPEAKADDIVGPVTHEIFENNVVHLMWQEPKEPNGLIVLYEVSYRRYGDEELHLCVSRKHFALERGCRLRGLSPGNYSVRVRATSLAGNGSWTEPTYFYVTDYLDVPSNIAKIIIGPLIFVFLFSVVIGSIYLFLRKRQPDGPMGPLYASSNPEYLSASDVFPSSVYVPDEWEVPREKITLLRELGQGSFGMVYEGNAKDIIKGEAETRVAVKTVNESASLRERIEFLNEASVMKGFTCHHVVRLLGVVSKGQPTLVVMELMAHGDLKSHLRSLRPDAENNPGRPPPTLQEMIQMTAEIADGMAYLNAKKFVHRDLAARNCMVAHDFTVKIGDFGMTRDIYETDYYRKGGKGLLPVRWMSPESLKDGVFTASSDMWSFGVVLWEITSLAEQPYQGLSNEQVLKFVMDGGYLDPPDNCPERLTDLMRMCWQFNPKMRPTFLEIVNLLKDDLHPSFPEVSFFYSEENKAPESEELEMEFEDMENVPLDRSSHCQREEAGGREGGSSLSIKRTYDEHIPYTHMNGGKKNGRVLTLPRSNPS

O=C(O[C@@H]1Cc2c(O)cc(O)cc2O[C@@H]1c1cc(O)c(O)c(O)c1)c1cc(O)c(O)c(O)c1 [EGCG, reference compound]
GTS activity (in words) [1]: no activity

O=C[C@H](OC(=O)c1cc(O)c(O)c(O)c1)[C@@H](OC(=O)c1cc(O)c(O)c(O)c1)[C@H](OC(=O)c1cc(O)c(O)c(O)c1)[C@@H](COC(=O)c1cc(O)c(O)c(O)c1)OC(=O)c1cc(O)c(O)c(O)c1 [PGG, penta-O-galloyl-D-glucose]
difference of binding affinities of PGG to gelatin and ovalbumin [2]: more than 100 fold | difference between relative affinities of three standard proteins for PGG ([2]; gelatin, BSA, ovalbumin): at least 10 fold | GTS activity (in words) [1]: high activities | hypoglycemia / blood glucose below basal levels [3]: does not further reduce bood glucose levels beyond normal or basal levels | expression of genes PPAR-γ, c/EBP induced by MDI ([4]; 30 μM PGG+MDI): completely abolished | β-actin expression [4]: not significantly affected | competition with / displacement of insulin at the insulin binding site on IR ([5]; 8 pM 125I-insulin, 0.1 to 20 μM PGG, overnight 4° C.): does not compete with insulin; also recorded: unable to displace insulin from IR | insulin binding at higher PGG concentrations ([5]; PGG above 20 μM): Insulin binding increased | phosphorylation of Akt [6]: phosphorylated | toxic effects [7]: No PGG-related toxic effects were observed | induction of differentiation when insulin in MDI was substituted by PGG ([8]; MD plus PGG, FIG. 2B): failed to induce differentiation | differentiation of preadipocytes treated with MDI plus compound ([8]; about 10 days, 30 μM PGG, FIG. 8): retain their fibroblast-like morphology and remain fat vesicle-free

O=C(OC[C@H]1OC(OC(=O)c2cc(O)c(O)c(O)c2)[C@H](OC(=O)c2cc(O)c(O)c(O)c2)[C@@H](OC(=O)c2cc(O)c(O)c(O)c2)[C@H]1OC(=O)c1cc(O)c(O)c(O)c1)c1cc(O)c(O)c(O)c1 (stereo partly shown) [PGGal, Pentagalloyl galactose]
GTS activity relative to PGG ([1]; 3T3-L1 cells): 60-70%

C=C1[C@@H](C)[C@H]2[C@H](Cc3ccccc3)NC(=O)[C@]23OC(=O)/C=C/[C@H](O)CCC[C@@H](C)C/C=C/[C@H]3[C@@H]1O [cytochalasin B]
inhibition of the GTS activity mediated by either insulin or PGG [9]: completely inhibited

O=C(O[C@H]1OC[C@@H](OC(=O)c2cc(O)c(O)c(O)c2)[C@H](OC(=O)c2cc(O)c(O)c(O)c2)[C@H]1OC(=O)c1cc(O)c(O)c(O)c1)c1cc(O)c(O)c(O)c1 [α-XylG4, Tetrakis-O-(3,4,5-trihydroxybenzoyl) -α-D-xylopyranose]
glucose uptake by the cells ([1]; 3T3-L1 adipocytes): increased glucose uptake

O=C(OC[C@H]1O[C@@H](OC(=O)c2ccc(O)c(O)c2)[C@H](OC(=O)c2ccc(O)c(O)c2)[C@@H](OC(=O)c2ccc(O)c(O)c2)[C@@H]1OC(=O)c1ccc(O)c(O)c1)c1ccc(O)c(O)c1 [β-Glc(G-3,4-OH2)5, Pentakis-O-(3,4-dihydroxybenzoyl) -β-D-glucopyranose]
glucose uptake by the cells ([1]; 3T3-L1 adipocytes): increased glucose uptake

O=C(OC[C@H]1O[C@@H](OC(=O)c2cc(O)c(O)c(O)c2)[C@H](OC(=O)c2cc(O)c(O)c(O)c2)[C@@H](OC(=O)c2cc(O)c(O)c(O)c2)[C@@H]1OC(=O)c1cc(O)c(O)c(O)c1)c1cc(O)c(O)c(O)c1 [β-PGG, 1,2,3,4,6-penta-O-galloyl-β-D-glucose]
GTS activity, synthesized versus plant derived β-PGG ([1]; 3T3-L1 adipocytes, FIG. 2A): similar | first round of clonal expansion [10]: not inhibited | second round of clonal expansion [10]: completely inhibited

insulin: hormone, positive control [reference compound]
hypoglycemia / blood glucose below basal levels [3]: resulted in a hypoglycemic condition

pentagalloyl deoxynojirimycin [PG-DJM]
GTS activity (in words) [1]: no detectable GTS activity
